Experimental data published in patent US6251898A, “Medical use of fluorenone derivatives for treating and preventing brain and spinal injury” (Questcor Pharmaceuticals, Inc., priority 1999, dated 2001).

How the values were obtained:
[1] = test system: neuronal damage caused by focal brain ischemia; experiment: Focal cerebral ischemia, middle cerebral artery occlusion model in rats; type: in vivo, Sprague-Dawley rats
Protocol: Other in vivo tests were also carried out using "focal" brain ischemia (i.e., blood supply to only a portion of the brain is disrupted, as usually occurs during a stroke). These assays used a surgical procedure described in Example 25, in which the right middle cerebral artery (MCA) and the right common carotid artery (CCA) of rats were clamped shut for two hours. The clamps were then removed, and the GERI-E7 was administered subsequently. The rats were sacrificed 3 days later, and brain sections were analyzed using tetrazolium dye, to determine the volumes of brain tissue with large numbers of dead or dying neurons.
In a second set of in vivo tests, a middle cerebral artery occlusion model was used in rats, to evaluate the ability of test compound GERI-E7 to reduce neuronal damage caused by focal brain ischemia. These tests were also performed in the laboratory of Dr. Claude Wasterlain, at the Sepulveda VA Medical Center in Los Angeles.
Male Sprague-Dawley rats (220 to 285 g) were intubated with an 18 gauge gavage needle and artificially respirated with a Harvard small animal respirator, 50 to 60 strokes/min, 2.0 to 3.0 cc. Anesthetization was induced by administering 1 to 2% methoxyflurane in a 1:2 O2 :N2 O gas mixture. To allow for rapid induction of the anesthetic state, succinylcholine (4 mg/kg, i.p.) was given immediately after anesthesia commenced, and surgery began 15 to 20 minutes later. Body temperature was maintained throughout by a heat lamp and rectal probe.
Focal cerebral ischemia was induced by reversibly clipping the right middle cerebral artery (MCA) and the right common carotid artery (CCA), as described in articles such as Kaplan et al 1991. A tracheal incision approximately 2.5 cm long was made, allowing placement of 4-0 suture silk under the CCA. This allowed rapid manipulation of the artery for clip placement. The temporalis muscle was partially excised and a 2 mm burr hole was drilled 2-3 mm rostral to the point of fusion of the zygoma with the temporal bone. Saline was used throughout this procedure for washing and maintenance of moisture.
The MCA was occluded below the rhinal fissure with a Codman Microaneurysm Clip #1. After the MCA was occluded the animal was turned onto its back and the CCA was occluded with a Roboz Microaneurysm Clip RS-5424.
A moistened piece of cotton was placed on the head wound and the tracheal region was partially closed by suture prior to placement of the animal in a warm cage with an oxygen tent. After a two-hour occlusion period (shown to produce a consistently measurable but non-lethal infarct), the clips were removed and methoxyflurane was administered via a nose cone. Visual verification was made for both artery occlusion, and post-occlusion reperfusion.
After the clips were removed and reperfusion was established, each animal was treated with either the GERI-E7 compound, at 20 mg/kg IV, or with the saline vehicle. All test and control groups had 10 animals. The wounds were closed and the animals were returned to their home cages.
Animals were sacrificed 72 hours later, and the brains were perfusion-fixedwith 4% paraformaldehyde. […] Infarct area was measured with an image analysis system at 8 to 10 levels between the posterior hippocampus and piriform olfactory cortex, to the level of the rhinal fissure. Infarct volume was determined by multiplying the average infarct area by the length of the brain between the posterior hippocampus and the piriform olfactory cortex. […]

[2] = test system: UC11-MG human astrocytoma cells; experiment: D-aspartate (excitotoxin) release by hypo-osmotically stressed astrocytoma cells; type: cell-based
Source text: The in vitro tests described in this example used UC11-MG human astrocytoma cells, obtained from the University of Cincinnati, and described in Liwnicz et al 1986 and Lomneth et al 1989. Cell culture reagents (including RPMI 1640, fetal bovine serum, trypsin, and gentamicin) were obtained from Gibco (Gaithersburg, Md.). Radiolabelled D-[2,3-^3 H]aspartate was obtained from Amersham Life Sciences (Buckinghamshire, England). ScintiVerse II scintillation fluid was obtained from Fisher Scientific (Pittsburgh, Pa.). All other chemicals were obtained from Sigma Chemical Co. (St. Louis, Mo.). Osmolarities of solutions were measured using the Advance DigiMatic Osmometer Model 3D II (Advanced Instruments Inc., Mass.).
The UC11-MG astrocytoma cells were cultured in 75 ml vented flasks at 37° C. inside a humidified incubator in 5% CO2 /95% air. The cells were grown in RPMI Medium 1640 supplemented with 10% fetal bovine serum and […] gentamicin. At approximately 90% confluence, the cells were detached and suspended using a 0.0625% trypsin solution in Buffer A (137 mM NaCl, 5.37 mM KCl, 5.55 mM glucose, 4.17 mM NaHCO3, and 0.54 mM EDTA disodium salt, pH 7.4). The cells were then plated onto 6-well tissue culture plates at a seeding ratio of 4 plates per flask and 4 ml of cell-media suspension per well. The plated cells were used in experiments the next day at approximately 90% confluence. Plates that appeared to be more than 95% confluent were not used, because higher levels of confluence led to uncontrollable differentials in exposure of the cells to culture media and labelled aspartate. All tests were performed in triplicate. All media collections were done at 5 minute intervals, using pipettes, and were followed by promptly loading fresh buffer into each well before any drying occurred. All buffer samples collected in this manner were loaded into scintillation vials, mixed with 5 ml scintillation fluid, and counted for 1 minute in a scintillation counter (Beckman LS8000, Fullerton, Calif.).
Prior to D-aspartate exposure, the wells were washed three times under sterile conditions with 3 ml of 37° C. Buffer B (122 mM NaCl, 3.3 mM KCl, 1.2 mM CaCl2, 0.4 mM MgSO4, 1.2 mM KH2 PO4, 25 mM Hepes, 10 mM glucose, pH 7.4).
The cells were then loaded with 0.5 μCi/ml of D-aspartate, and incubated at 37° C. for 30 min. Cells were then washed four times with Buffer B, and the last washing fluid was left on the cells. The plates were then placed on an orbital shaker and maintained at 37° C.
Baseline aspartate release levels (prior to drug treatment) were determined by incubating the cells with normal Buffer B (285 mOsm) for 15 minutes, while buffer was collected every 5 minutes.
After the buffer was collected from a well at the 15 minute mark, the next set of normal Buffer B added to that well contained a test compound at a known concentration; each compound was tested over a range of concentrations. Cells were then incubated for two 5 minute intervals with solutions of test compounds in normal Buffer B. In some tests which used buffers containing relatively high concentrations of a test drug with limited solubility in water, DMSO was added to the mixture to increase the solubility of the compound in water.
Beginning at the 25-minute mark, the cells were stimulated to begin releasing aspartate by loading a well with hypo-osmotic buffer, prepared by diluting Buffer B with an equal volume of distilled and deionized H2 O, resulting in an osmolarity of about 145 mOsm. This hypo-osmoticsolution caused the cells to begin taking in excess water, to try to reestablish the normal osmotic gradients that exist across the cell membranes. The water-induced swelling and stress then began to induce release of aspartate by the cells, and the amount of aspartate released by the swollen astrocyte cells was measured by removing the buffer every 5 minutes and testing it in a scintillation counter.

## CCC[C@]12CCC(=O)C=C1c1c(cc(OCC3=NCCO3)c(Cl)c1Cl)C2 [GERI-E7, R(+)-2-[[(5,6-dichloro-2,3,9,9a-tetrahydro-3-oxo-9a-propyl-1H-fluoren-7-yl)-oxy]methyl]oxazoline]
[1]; 20 mg/kg IV after 2 h occlusion, 72 h
  Edema: Edema was also reduced
[1]; 20 mg/kg IV after 2 h occlusion, 72 h, FIG. 13
  Reduction of area of infarct volume: about 50%
[1]; animal model used
  Reduction of brain damage caused by focal brain ischemia: very effective in reducing brain damage
[1]; first round of focal assays
  Reduction of infarct volumes: about 30%
[1]; second set of assays, new batch stored in liquid nitrogen, mixed with carrier less than 24 hours before injection, average
  Reduction of infarct volumes: 50%
[2]; Homo sapiens, UC11MG, hypo-osmotic stress, about 145 mOsm, AUC-based, read-out: IC50 value (suppression of excitotoxin / D-aspartate release by stressed astrocyte cells)
  IC50: 8.5 µM
[2]; relative to L-644,711 (100% = benchmark)
  Comparative potency: 3,100%
